According to US20260344668A1, “PHENYLPYRAZOLE COMPOUND, AND PLANT DISEASE CONTROL METHOD” (priority 2022, published 2026):

Legend:
[1] = system: Septoria tritici; assay: Test Example 10 Control Test Against Wheat Leaf Blotch (pot test); type: in vivo; details: 200 ppm foliage spray, wheat (Apogee), inoculated after 4 days
Protocol: (§1) The term of “non-treated well” in Test Example 4, Test Example 5, and Test Example 6 represents a well wherein a test was carried out under the same conditions as those described in each Test Example except for dispensing DMSO instead of a diluted solution with DMSO comprising the Present compound. Also, the term of “non-treated” in Test Examples 15 to 17 represents a test which was carried out under the same conditions as those described in each Test Example except for dispensing DMSO instead of a diluted solution with DMSO comprising the Present compound. Also, the term of “non-treated leaf disk” in Test Example 7 represents a leaf disk wherein a test was carried out under the same conditions as those described in the Test Example except for dispensing DMSO instead of a diluted solution with DMSO comprising the Present compound. Also, the term of “non-treated” in Test Example 10 and Test Example 11 means that a diluted solution with water of a formulation comprising the Present compound was not sprayed.
A plastic pot was filled with soil, wheat (cultivar: Apogee) was seeded thereto, and cultured in a greenhouse for 10 days. […]

[2] = system: Phakopsora pachyrhizi; assay: Test Example 16 Control Test Against Soybean Rust Fungus (spore germination, petri dish); type: cell-based; details: treatment concentration 10 ppm, 23° C., 1 day
Protocol: as §1
An agar medium (agar concentration: 1.0%) (3 mL) was placed in a plastic petri dish having a diameter of 3.5 cm, and solidified. Each Present compound was diluted with DMSO in such a way that the resulting diluted solution containing 10000 ppm of the compound, and said solution (1 μL) and an aqueous suspension (1.0×10^4/mL) (999 μL) of spores of Phakopsora pachyrhizi to which spores of Phakopsora pachyrhizi were suspended were mixed, and then the resulting mixture was dispensed into the plastic petri dish. This plastic petri dish was cultured at 23° C. for 1 day, and then germinated spores of Phakopsora pachyrhizi were counted. As a result, when the treatment concentration was 10 ppm, and any one of the Present compound 9, 10, 28, 29, or 32 was used as the test compound to carry out the test, the number of germinated spores in each plastic petri dish using the above each Present compound as the test compound was 50% or less relative to the number of germinated spores in the non-treated plastic petri dish.

[3] = system: Phakopsora pachyrhizi; assay: Test Example 11 Control Test Against Soybean Rust (pot test, spraying before inoculation); type: in vivo; details: 200 ppm foliage spray, soybeans (Kurosengoku), inoculated after 2 to 5 days
Summary of the method: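 Soybeans (cv. Kurosengoku), grown 10–14 days in pots, foliar-sprayed with formulated compound at 200 ppm, inoculated 2–5 days later with Phakopsora pachyrhizi spores. Kept humid 1–2 days at 23 °C day/20 °C night, then greenhouse 12 days; lesion area scored against unsprayed plants.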

[4] = system: soybean rust fungus (Phakopsora pachyrhizi) having an amino acid substitution of F129L in a mitochondrial cytochrome b protein; assay: Test Example 7 Control Test Against Soybean Rust (leaf disk); type: in vivo; details: 200 ppm, 10 μL per soybean leaf disk (cultivar: Kurosengoku), inoculated after 1 day
Summary of the method: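 Soybean (Kurosengoku) leaf disks of 1 cm on 1.2% agar were sprayed with compound in a DMSO/xylene/Sorpol emulsion diluted in water to a prescribed concentration. One day later they were spray-inoculated with F129L cytochrome b mutant P. pachyrhizi spores (1.0×10^5/mL) and kept at 23 °C, 60% humidity, 6 h light, for about 13 days. Lesion area was compared with DMSO-treated disks.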

[5] = system: Botrytis cinerea; assay: Test Example 4 Control Test Against Cucumber Botrytis Rot Fungus (96 well titer plate growth); type: cell-based; details: 1 μL of 150 ppm DMSO solution + 150 μL complete medium, 18° C., 4 days, absorbance at 550 nm
Protocol: The term of “non-treated well” in Test Example 4, Test Example 5, and Test Example 6 represents a well wherein a test was carried out under the same conditions as those described in each Test Example except for dispensing DMSO instead of a diluted solution with DMSO comprising the Present compound. Also, the term of “non-treated” in Test Examples 15 to 17 represents a test which was carried out under the same conditions as those described in each Test Example except for dispensing DMSO instead of a diluted solution with DMSO comprising the Present compound. Also, the term of “non-treated leaf disk” in Test Example 7 represents a leaf disk wherein a test was carried out under the same conditions as those described in the Test Example except for dispensing DMSO instead of a diluted solution with DMSO comprising the Present compound. […]
The Present compound 24 was diluted with DMSO to obtain a diluted solution containing 150 ppm of the compound, and 1 μL of the diluted solution was dispensed into a titer plate (96 well), and thereto was then dispensed 150 μL of a complete medium to which spores of Botrytis cinerea were inoculated in advance. This plate was cultured at 18° C. for 4 days, thereby allowing Botrytis cinerea to undergo proliferation, and the absorbance at 550 nm of each well of the titer plate was then measured to determine a degree of growth of Botrytis cinerea. […]

[6] = system: Phakopsora pachyrhizi; assay: Test Example 17 Control Test Against Soybean Rust Fungus (spore germination, petri dish); type: cell-based; details: method according to Test Example 16
Protocol: as §1
An agar medium (agar concentration: 1.0%) (3 mL) was placed in a plastic petri dish having a diameter of 3.5 cm, and solidified. […] This plastic petri dish was cultured at 23° C. for 1 day, and then germinated spores of Phakopsora pachyrhizi were counted. […]

[7] = system: Phakopsora pachyrhizi; assay: Test Example 15 Control Test Against Soybean Rust Fungus (spore germination, 96 well titer plate); type: cell-based; details: treatment concentration 1 ppm, 23° C., several hours
Summary of the method: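 Compound in DMSO was added to an aqueous Phakopsora pachyrhizi spore suspension (1.0×10^4/mL) and incubated several hours at 23° C. Germinated spores were counted relative to DMSO-only wells.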

[8] = system: Cladosporium carpophilum; assay: Test Example 5 Control Test Against Peach Scab Fungus (96 well titer plate growth); type: cell-based; details: 1 μL of 150 ppm DMSO solution + 150 μL PDB medium, 18° C., 5 days, absorbance at 550 nm
Protocol: as §1
Each of the Present compound 79, 80, 81, 89, 92, 93, 96, or 99 was diluted with DMSO to obtain a diluted solution containing 150 ppm of each compound, and 1 μL of the diluted solution was dispensed into a titer plate (96 well), and thereto was then dispensed 150 μL of a potato dextrose broth medium (PDB medium) to which spores of Cladosporium carpophilum were inoculated in advance. This plate was cultured at 18° C. for 5 days, thereby allowing Cladosporium carpophilum to undergo proliferation, and the absorbance at 550 nm of each well of the titer plate was then measured to determine a degree of growth of Cladosporium carpophilum. As a result, the degree of growth in the well treated with each of the above Present compound was 50% or less relative to the degree of growth in the non-treated well.

[9] = system: Cochliobolus miyabeanus; assay: Test Example 6 Control Test Against Rice Brown Spot Fungus (96 well titer plate growth); type: cell-based; details: 1 μL of 150 ppm DMSO solution + 150 μL YB liquid medium, 23° C., 3 days, absorbance at 550 nm
Protocol: as §1
Each of the Present compound 17, 33, 36, 37, 39, 40, 41, 42, 43, 44, 48, 49, 50, 51, 52, 53, 62, 68, 69, 70, 71, 76, 77, 79, 80, 81, 82, 83, 84, or 97 was diluted with DMSO to obtain a diluted solution containing 150 ppm of each compound, and 1 μL of the diluted solution was dispensed into a titer plate (96 well), and thereto was then dispensed 150 μL of a YB liquid medium to which spores of Cochliobolus miyabeanus were inoculated in advance. This plate was cultured at 23° C. for 3 days, thereby allowing Cochliobolus miyabeanus to undergo proliferation, and the absorbance at 550 nm of each well of the titer plate was then measured to determine a degree of growth of Cochliobolus miyabeanus. As a result, the degree of growth in the well treated with each of the above Present compounds was 50% or less relative to the degree of growth in the non-treated well.

Row | Compound | number of germinated spores relative to the non-treated plastic petri dish [2] | lesion area relative to the lesion area in the non-treated soybeans [3] | lesion area relative to the lesion area of non-treated leaf disk [4] | other results
1 | O=S(=O)(c1ccccc1)n1ccc(-c2ccc(Cl)cc2)n1 [compound 4] | – | – | – | lesion area relative to the lesion area in the non-treated wheat [1]: ≤ 30%
2 | O=S(=O)(c1ccccc1)n1ccc(-c2cc(F)c(Br)c(F)c2)n1 [compound 9] | ≤ 50% | ≤ 30% | ≤ 30% | –
3 | O=S(=O)(c1cccnc1)n1ccc(-c2cc(F)c(Br)c(F)c2)n1 [compound 10] | ≤ 50% | ≤ 30% | ≤ 30% | –
4 | COc1ccccc1S(=O)(=O)n1ccc(-c2cc(F)c(Br)c(F)c2)n1 [compound 24] | – | – | – | degree of growth relative to the degree of growth in the non-treated well [5]: ≤ 50%
5 | Cc1ccc(S(=O)(=O)n2ccc(-c3cccc(F)c3)n2)cc1 [compound 28] | ≤ 50% | – | – | –
6 | Cc1ccc(S(=O)(=O)n2ccc(-c3ccc(F)cc3)n2)cc1 [compound 29] | ≤ 50% | – | – | –
7 | Cn1cnc(S(=O)(=O)n2ccc(-c3cccc(C(=O)NC4CC4)c3)n2)c1 [compound 31] | – | – | – | lesion area relative to the lesion area in the non-treated wheat [1]: ≤ 30%
8 | Cn1cnc(S(=O)(=O)n2ccc(-c3cc(F)c(Br)c(F)c3)n2)c1 [compound 32] | ≤ 50% | – | ≤ 30% | –
9 | Cc1ccc(S(=O)(=O)n2ccc(-c3ccc4c(c3)OC(F)(F)O4)n2)cc1 [compound 61] | – | – | – | number of germinated spores relative to the non-treated plastic petri dish [6]: ≤ 50%
10 | O=S(=O)(c1cccs1)n1ccc(-c2ccc(Cl)cc2)n1 [compound 81] | – | ≤ 30% | ≤ 30% | number of germinated spores relative to the non-treated well [7]: ≤ 50%; degree of growth relative to the degree of growth in the non-treated well [8]: ≤ 50%; degree of growth relative to the degree of growth in the non-treated well [9]: ≤ 50%
